Measurements taken from patent US20200062719A1, “Application of Imidazopyridine Derivatives in Regenerative Medicine” (University of Heidelberg, priority 2018, published 2020).
pIC50: −log10 of the molar value.

What was measured:
[1] = tested on: Oct4; experiment: Luciferase reporter assay in NCCIT-Oct4 cells; assay type: cell-based, human; conditions: O4I3 1 nM, a 10,000-fold lower concentration; both reporter cell lines
[2] = tested on: hiPSCs; experiment: Differentiation markers in hiPSCs at high concentration; assay type: cell-based, human; conditions: 10 μM
[3] = tested on: reprogramming-related proteins; experiment: Phosphorylation microarray in NCCIT and JoPaca-1 cells; assay type: cell-based; conditions: NCCIT and JoPaca-1, 1 μM, 24 hours
Protocol: Cells were analysed in the presence (24 hours O4I3 1 μM) or absence (NT) of O4I3.
The cellular responses to O4I3 was analyzed in two stem cell lines, NCCIT and JoPaca-1 (FIG. 10).

[4] = tested on: neural stem cells; experiment: Maintenance of neural stem cells, MTT viability; assay type: cell-based; conditions: starting from 1 nM
Protocol: Neural stem cells were cultivated in SPN medium (DMEM-F12 Knockout medium containing 2% StemPro® NSC SFM, EGF (20 ng/mL) and FGF (20 ng/mL)) until cell confluence reached 80-90%. Acutase was used to get single cell suspension and washed with PBS. 20,000 cells/[…] were seeded into matrigel-coated plates using SPN medium with or without O4I3. The MTT assay was applied to determine cell viability.
The self-renewal of multipotent neural stem cells was also tested with the compound of the current invention. Neural stem cells were cultivated in SPN medium with or without O4I3 at different final concentrations (FIG. 7). The MTT assay was applied to determine cell viability. Starting from a concentration of 1 nM O4I3 the viability of neural stem cells was increased in comparison to mock treated neural stem cells.

[5] = molecular target: T1, LSD1 (Homo sapiens, UniProt O60341); experiment: LSD1 demethylase inhibition, nuclear extraction; assay type: biochemical; conditions: even at a concentration of 100 mM
T1 construct: using the whole-cell nuclear extraction; endogenous in cells
Text: (§1) HMT and HDM are two major classes of enzymes, contributing to the regulation of histone methylation. Lysine-specific demethylase 1 (LSD1) and histone lysine demethylase 5 (KDM5, also known as JARID1) majorly catalyze demethylation of H3K4. A few KDM5 chemical inhibitors have been reported to inhibit demethylation of H3K4, leading to an increase of global methylated H3K4 in various cell types. The inventors tested the inhibitory effect of O4I3 on LSD1 and KDM5. KDM4 (also known as JMJD2), the HDM of H3K9 and H3K36, was also included.
(§2) Epiquik histone demethylase (H3K4 specific) activity/inhibition assay kit (Epigentek, Biocat, Germany) was used to measure the protective effect of O4I3 and zolpidem on the methylation of H3K4. Their inhibitory effects on LSD1, KDM5s, and KDM4 were determined using Epigenase jarid demethylase activity/inhibition assay kit, Epigenase JMJD2 demethylase activity/inhibition assay kit and EpiQuik histone demethylase LSD1 activity/inhibition assay kit (Epigentek, Biocat, Germany). The total nuclear extraction was used according to manufacturer's instructions. For measuring KDM5A, KDM5B, KDM5C, and KDM5D activity, magnetic beads were used to immunoprecipitate the respective enzymes from 10^8 cells according to the manufacturer's instructions (Cell Signaling Technologies).

[6] = molecular target: methylated H3K4; experiment: In vitro H3K4 methylation assay (Epiquik histone demethylase H3K4 specific kit); assay type: biochemical; conditions: in vitro methylation assay; read-out: IC50, protection of methylated H3K4
Protocol: as §2

[7] = tested on: KDM4; experiment: KDM4 (JMJD2) demethylase inhibition, nuclear extraction; assay type: biochemical
Text: as §1, §2

[8] = molecular target: T2, KDM4; experiment: as above; assay type: biochemical; conditions: whole-cell nuclear extraction
T2 construct: other: whole-cell nuclear extraction; other: micromolar concentrations
Text: as §1, §2

[9] = tested on: human fibroblasts; experiment: Episome-based reprogramming of human fibroblasts, AP+ / iPSC-like colonies; assay type: cell-based
Protocol: O4I3 was applied in commercially available episome-based reprogramming cocktail containing episomal vectors for overexpression of Oct4, Sox2, Klf4, Lin28 and L-Myc, as well as suppression of p53. In comparison to non-treated fibroblast cultures, 20 times more alkaline phosphatase (AP) positive colonies were detected in the presence of O4I3 at a concentration of 50 nM in two tested human primary fibroblasts (HF1 and HF2) (FIG. 13).
It is known in the art that senescence or other unknown factors can confer donor fibroblasts resistance to reprogramming. Therefore, O4I3 was tested for its ability to enable reprogramming of refractory fibroblasts. Two human fibroblasts were selected. HFF-LTR7-EGFP at passage >40 carrying EGFP driven by a LTR7 promoter, which was activated during reprogramming, and HF5, isolated from a patient sample, both of which were resistant to an episome-based reprogramming approach (FIG. 13).
Epi5® Episomal iPSC Reprogramming Kit (Life technologies) was used to reprogram human fibroblasts according to the manufacturer's protocol. Briefly, 5,000-50,000 cells were seeded in a 24-well plate for 24 h and then transfected with episomal vectors in N2 B27 medium. After 14 days, cells were re-suspended with 0.5 mM EDTA and re-plated in a 6-well plate in Essential®8 medium. Colonies were isolated after 3-4 weeks with the help of alkaline phosphatase (AP) live stain (Life technologies). Medium was refreshed daily.

[10] = molecular target: T3, KDM5B (Homo sapiens, UniProt Q9UGL1); experiment: KDM5B inhibition, enzyme immunoprecipitated from cells; assay type: biochemical
T3 construct: magnetic beads were used to immunoprecipitate the respective enzymes from 10^8 cells; endogenous in cells
T3 sequence (Q9UGL1 whole entry): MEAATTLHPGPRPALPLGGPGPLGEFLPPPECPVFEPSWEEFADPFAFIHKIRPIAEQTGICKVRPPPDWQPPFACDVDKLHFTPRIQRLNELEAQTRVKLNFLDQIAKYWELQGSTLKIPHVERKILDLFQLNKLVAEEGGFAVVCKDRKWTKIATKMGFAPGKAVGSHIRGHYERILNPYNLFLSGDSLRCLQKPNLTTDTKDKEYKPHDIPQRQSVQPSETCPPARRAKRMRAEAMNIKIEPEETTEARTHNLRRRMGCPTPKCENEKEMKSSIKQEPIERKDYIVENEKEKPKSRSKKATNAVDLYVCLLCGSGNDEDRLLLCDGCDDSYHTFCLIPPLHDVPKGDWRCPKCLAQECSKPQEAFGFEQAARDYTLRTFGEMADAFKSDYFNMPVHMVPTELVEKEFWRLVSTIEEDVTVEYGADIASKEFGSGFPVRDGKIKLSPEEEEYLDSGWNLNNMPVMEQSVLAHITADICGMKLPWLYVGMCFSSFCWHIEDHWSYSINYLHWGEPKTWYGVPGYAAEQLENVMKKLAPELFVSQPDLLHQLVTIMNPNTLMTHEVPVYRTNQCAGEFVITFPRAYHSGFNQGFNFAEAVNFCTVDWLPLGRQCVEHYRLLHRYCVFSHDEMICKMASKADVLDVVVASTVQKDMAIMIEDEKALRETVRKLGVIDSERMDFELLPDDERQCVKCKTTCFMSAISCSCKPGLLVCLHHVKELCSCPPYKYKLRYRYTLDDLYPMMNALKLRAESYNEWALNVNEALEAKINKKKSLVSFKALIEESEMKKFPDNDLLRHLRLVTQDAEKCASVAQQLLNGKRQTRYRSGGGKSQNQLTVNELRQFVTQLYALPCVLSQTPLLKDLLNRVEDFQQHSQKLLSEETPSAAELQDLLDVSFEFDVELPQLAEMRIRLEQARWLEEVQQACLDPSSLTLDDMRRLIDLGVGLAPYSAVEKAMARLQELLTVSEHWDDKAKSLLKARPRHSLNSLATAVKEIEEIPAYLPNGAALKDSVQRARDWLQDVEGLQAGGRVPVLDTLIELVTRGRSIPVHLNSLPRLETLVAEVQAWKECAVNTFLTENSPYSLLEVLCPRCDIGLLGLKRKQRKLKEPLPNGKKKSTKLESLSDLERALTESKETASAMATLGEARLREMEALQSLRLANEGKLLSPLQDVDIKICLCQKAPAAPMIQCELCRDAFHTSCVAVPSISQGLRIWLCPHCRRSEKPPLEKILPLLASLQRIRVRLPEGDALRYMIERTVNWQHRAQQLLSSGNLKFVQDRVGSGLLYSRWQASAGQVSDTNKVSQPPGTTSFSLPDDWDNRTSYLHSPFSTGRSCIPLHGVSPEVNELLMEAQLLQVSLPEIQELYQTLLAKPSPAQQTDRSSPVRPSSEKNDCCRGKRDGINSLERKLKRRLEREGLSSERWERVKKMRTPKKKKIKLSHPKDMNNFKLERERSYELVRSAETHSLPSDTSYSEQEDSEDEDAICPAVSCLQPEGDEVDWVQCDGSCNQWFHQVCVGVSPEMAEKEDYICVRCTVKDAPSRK
Text: In mammalian cells, the KDM5 family consists of four members, namely, KDM5A (known as JARID1A), KDM5B (known as JARID1B or PLU1), KDM5C (JARID1C), and KDM5D (JARID1D or SMCY). […] Next, the inventors tested four KDM chemical inhibitors. […] The inventors detected the induction of OCT4, SOX2, and E-Cadherin expression in JIB-04-treated HFs (FIG. 18D).
as §2

Cc1ccc(-c2cn3cc(C)ccc3n2)cc1 [O4I3, 6-methyl-2-(p-tolyl)imidazo[1,2-a]pyridine]
induction versus zolpidem at 10 μM [1]: comparable induction
differentiation markers T and Gata4 [2]: induction of those markers
activation of Erk1 [3]: selectively activated
activation of Erk2 [3]: not
viability of neural stem cells in comparison to mock treated [4]: increased
inhibitory effect on LSD1 [5]: hardly detected the inhibitory effect
pIC50 [6]: 7.70
less potency on KDM4 than on KDM5 [7]: 500 fold
pIC50 [8]: 6.60
alkaline phosphatase (AP) positive colonies in comparison to non-treated fibroblast cultures ([9]; 50 nM, HF1 and HF2): 20 times
reprogramming of resistant fibroblasts ([9]; 500 Nm, HFF-LTR7-EGFP and HF5): appearance of iPSC-like colonies
IC50 less potent than for KDM5A, KDM5B [10]: 1,000 fold
